Like-named read-outs stand apart in the source and are kept apart here.
Experiments:
Type in all cases: cell-based
[1] = system: NCI-H82 (human small cell lung cancer cell); assay: Cell viability assay (Promega CellTiter-Glo), inhibitory effect on NCI-H82; conditions: 72 h, 3 days of culture
Protocol: (§1) The inhibitory effect of the compounds prepared in the Examples of the present invention on various tumor cell lines was detected using cell viability assay reagent.
(§2) Cell viability was detected using the Promega CellTiter-Glo kit, cell viability was determined by directly measuring intracellular ATP content. In the experiment, the ICso value of the compounds prepared in the Examples of the present invention on various tumor cell lines was detected.
(§3) Each tumor cell was cultured in relevant medium. After cell passage, the gradient diluted compounds prepared in the Examples of the present invention was added. After 3 days of culture, the relevant IC50 (50% inhibiting concentration) was measured. The name, source and culture conditions of each tumor cell line were as follows:
Cell line NCI-H82 (ATCC, No. HTB-175) was cultured in 10% fetal bovine serum-containing RPMI1640 medium (+P/S).

[2] = system: SW48 (human colon adenocarcinoma cell); assay: Cell viability assay (Promega CellTiter-Glo), inhibitory effect on SW48; conditions: 72 h, 3 days of culture
Protocol: as §1, §2, §3
Cell line SW48 (ATCC, No. CCL-231) was cultured in 10% fetal bovine serum-containing Leibovitz's L-15 medium (+P/S).

[3] = system: G-401 (human renal carcinoma Wilms cell); assay: Cell viability assay (Promega CellTiter-Glo), inhibitory effect on G-401; conditions: 72 h, 3 days of culture
Protocol: as §1, §2, §3
Cell line G-401 (ATCC, No. CRL-1441) was cultured in 10% fetal bovine serum-containing McCoy's 5a medium (+P/S).

[4] = system: MDA-MB-453 (breast cancer cell); assay: Cell viability assay (Promega CellTiter-Glo), inhibitory effect on MDA-MB-453; conditions: Homo sapiens, 72 h, 3 days of culture
Protocol: as §1, §2, §3
Cell line MDA-MB-453 (ATCC, No. HTB-131) was cultured in 10% fetal bovine serum-containing Leibovitz's L-15 medium (+P/S).

[5] = system: CFPAC-1 (human pancreatic cancer cell); assay: Cell viability assay (Promega CellTiter-Glo), inhibitory effect on CFPAC-1; conditions: 72 h, 3 days of culture
Protocol: as §1, §2, §3
Cell line CFPAC-1 (ATCC, No. CRL-1918) was cultured in 10% fetal bovine serum-containing IMDM medium (+P/S).

[6] = system: 786-O (clear cell renal cell adenocarcinoma cell); assay: Cell viability assay (Promega CellTiter-Glo), inhibitory effect on 786-O; conditions: Homo sapiens, 786-0, 72 h, 3 days of culture
Protocol: as §1, §2, §3
Cell line 786-0 (ATCC, No. CRL-1932) was cultured in 10% fetal bovine serum-containing RPMI1640 medium (+P/S).

[7] = system: SF126 (human glioblastoma multiforme cell); assay: Cell viability assay (Promega CellTiter-Glo), inhibitory effect on SF126
Protocol: as §1, §2, §3
Cell line SF126 (JCRB, No. IFO50286) was cultured in 10% fetal bovine serum-containing EMEM medium (+P/S).
(§4) The inhibitory effect of the compounds prepared in the Examples of the present invention on various brain tumor cell lines was detected using cell viability assay reagent.
(§5) Cell viability was detected using the Promega CellTiter-Glo kit, cell viability was determined by directly measuring intracellular ATP content. In the experiment, the IC50 value of the compounds prepared in the Examples of the present invention on various brain tumor cell lines was detected.

[8] = system: GB-1 (human brain glioblastoma cell); assay: Cell viability assay (Promega CellTiter-Glo), inhibitory effect on GB-1; conditions: 72 h, 3 days of culture
Protocol: as §1, §2, §3
Cell line GB-1 (JCRB, No. IFO50489) was cultured in 10% fetal bovine serum-containing DMEM medium (+P/S).
as §4, §5

[9] = system: Kelly (brain neuroblastoma cell); assay: Cell viability assay (Promega CellTiter-Glo), inhibitory effect on Kelly; conditions: Homo sapiens, 72 h, 3 days of culture, read-out: inhibitory effect on brain cell line Kelly (IC50)
Protocol: as §4, §5, §3
Cell line Kelly (ECACC, No. 92110411) was cultured in 10% fetal bovine serum and 2 mM glutamine-containing RPMI1640 medium.

[10] = system: NB-1 (brain neuroblastoma cell); assay: Cell viability assay (Promega CellTiter-Glo), inhibitory effect on NB-1; conditions: Homo sapiens, 72 h, 3 days of culture, read-out: inhibitory effect on brain cell line NB-1 (IC50)
Protocol: as §4, §5, §3
Cell line NB-1 (ATCC, No. HTB-131) was cultured in 10% fetal bovine serum-containing Leibovitz's L-15 medium (+P/S).

[11] = system: D341 Med (cerebellar medulloblastoma cell); assay: Cell viability assay (Promega CellTiter-Glo), inhibitory effect on D341 Med; conditions: Homo sapiens, 72 h, 3 days of culture, read-out: inhibitory effect on brain cell line D341 Med (IC50)
Protocol: as §4, §5, §3
Cell line D341 Med (ATCC, No. HTB-187) was cultured in 20% fetal bovine serum-containing EMEM medium (+P/S).

[12] = system: Con-NCI-H82 cell (NCI-H82 transfected with empty virus vector); assay: Cell viability assay (Promega CellTiter-Glo), inhibitory effect on Con-NCI-H82 cell; conditions: Homo sapiens
Protocol: (§6) The role of expression level of NNMT gene and DNMT1 in the sensitivity of NCI-H82 cell to the compounds prepared in the Examples of the present invention was determined
(§7) The expression of NNMT protein in NCI-H82 cell was overexpressed by inserting the NNMT gene into NCI-H82 cell using a viral vector, and the NNMT protein-overexpressing NCI-H82 cell (ov-NNMT NCI-H82 cell) was obtained. The expression of DNMT1 in NCI-H82 cell was knocked down transfecting (the by shRNA nucleotide sequence of shRNA was […] TTTTTG (SEQ ID No: 2)) using a viral vector, and the NCI-H82 cell with low expression of DNMT1 protein (sh-DNMT1 NCI-H82 cell) was obtained. The control NCI-H82 cell (Con-NCI-H82 cell) was obtained by transfecting NCI-H82 cell with empty virus vector without carrying NNMT gene and shRNA. The expressing content of NNMT protein and DNMT1 protein in the Con-NCI-H82 cell, the expressing content of NNMT protein in the ov-NNMT NCI-H82 cell, and the expressing content of DNMT1 protein in the sh-DNMT1 NCI-H82 cell were detected using Western Blot assay (as shown in FIG. 15 and FIG. 16), it could be seen from FIG. 15 and FIG. 16 that the NNMT protein was overexpressed in the ov-NNMT NCI-H82 cell and the expression of DNMT1 protein was knocked down (i.e, low expression) in the sh-DNMT1 NCI-H82 cell compared with the expression level of NNMT protein and DNMT protein in the Con-NCI-H82 cell.

[13] = system: ov-NNMT NCI-H82 cell (NNMT protein-overexpressing NCI-H82); assay: Cell viability assay (Promega CellTiter-Glo), inhibitory effect on ov-NNMT NCI-H82 cell; conditions: Homo sapiens
Protocol: as §6, §7

[14] = system: sh-DNMT1 NCI-H82 cell (DNMT1 knocked down NCI-H82); assay: Cell viability assay (Promega CellTiter-Glo), inhibitory effect on sh-DNMT1 NCI-H82 cell; conditions: Homo sapiens, NCI-H82 with DNMT1 knocked down by shRNA
Protocol: as §6, §7

[15] = 72 h, SF-126, 3 days of culture, Table 3, read-out: inhibitory effect on SF-126 (IC50)
[16] = Table 3, read-out: inhibitory effect on GB-1 (IC50)
[17] = NCI-H82 transfected with empty virus vector (control), CellTiter-Glo, read-out: inhibitory effect on Con-NCI-H82 (IC50)
[18] = NCI-H82, read-out: inhibitory effect on Con-NCI-H82 (IC50)

| IC50 [12, 17] | IC50 [13] | IC50 [14] | SMILES | other results |
| --- | --- | --- | --- | --- |
| 1480 nM | 3150 nM | 4640 nM | CCc1c2c(OC)c(OC)ccc2cc2[n+]1CCc1cc3c(cc1-2)OCO3 [compound AB31706] | IC50 [1]: 1480 nM; IC50 [2]: 1240 nM; IC50 [3]: 1120 nM; IC50 [4]: 620 nM; IC50 [5]: 21900 nM; IC50 [6]: 16600 nM; IC50 [7, 15]: 6490 nM; IC50 ([7]; SF-126, 72 h, SF126, 3 days of culture, Table 4, read-out: inhibitory effect on brain cell line SF126 (IC50)): 6490 nM; IC50 [8, 16]: 12900 nM; IC50 ([8]; Table 4, read-out: inhibitory effect on brain cell line GB-1 (IC50)): 12900 nM; IC50 [9]: 1510 nM; IC50 [10]: 300 nM; IC50 [11]: 1180 nM |
| 70 nM | 380 nM | 350 nM | CCCCCCCCCCOc1c(OC)ccc2cc3[n+](cc12)CCc1cc2c(cc1-3)OCO2 [compound AB31716] |  |
| 110 nM | 250 nM | 360 nM | CCCCCCCCCCCCOc1c(OC)ccc2cc3[n+](cc12)CCc1cc2c(cc1-3)OCO2 [compound AB31717] |  |
| 3940 nM | 8280 nM | 8080 nM | CCCCC(=O)Oc1c(OC)ccc2cc3[n+](cc12)CCc1cc2c(cc1-3)OCO2 [compound AB31723] | IC50 [1]: 3940 nM; IC50 [2]: 2560 nM; IC50 [3]: 5310 nM; IC50 [4]: 3450 nM; IC50 [5]: 22600 nM; IC50 [6]: 21500 nM; IC50 [7, 15]: 19300 nM; IC50 [8, 16]: > 50000 nM |
| 2360 nM | 4820 nM | 7680 nM | CCc1c2[n+](cc3c(OC)c(OC)ccc13)CCc1cc3c(cc1-2)OCO3 [compound AB31755] |  |
| 1010 nM | 2380 nM | 4360 nM | CCCc1c2[n+](cc3c(OC)c(OC)ccc13)CCc1cc3c(cc1-2)OCO3 [compound AB31756] |  |
| 270 nM | 740 nM | 980 nM | CCCCCCCCc1c2[n+](cc3c(OC)c(OC)ccc13)CCc1cc3c(cc1-2)OCO3 [compound AB31761] |  |
| 130 nM | 320 nM | 490 nM | CCCCCCCCCCc1c2[n+](cc3c(OC)c(OC)ccc13)CCc1cc3c(cc1-2)OCO3 [compound AB31762] |  |
| 80 nM | 310 nM | 420 nM | CCCCCCCCCCCCc1c2[n+](cc3c(OC)c(OC)ccc13)CCc1cc3c(cc1-2)OCO3 [compound AB31763] |  |
| 2470 nM | 4950 nM | 4840 nM | CCCCCCCCCCCC(=O)Oc1c(OC)ccc2cc3[n+](cc12)CCc1cc2c(cc1-3)OCO2 [compound AB31766] | IC50 [1]: 2470 nM; IC50 [2]: 1210 nM; IC50 [3]: 2890 nM; IC50 [4]: 1250 nM; IC50 [5]: 15200 nM; IC50 [6]: 13000 nM; IC50 [7, 15]: 12900 nM; IC50 [8, 16]: 9120 nM |
| 240 nM | 680 nM | 880 nM | CCCCCCCCCCCCc1c2[n+](cc3c(OCCCCCCCCCC)c(OC)ccc13)CCc1cc3c(cc1-2)OCO3 [compound AB31795] |  |
| 270 nM | 640 nM | 760 nM | CCCCCCCCCCCCc1c2[n+](cc3c(OCCCCCCCC)c(OC)ccc13)CCc1cc3c(cc1-2)OCO3 [compound AB31796] |  |
| 120 nM | 540 nM | 480 nM | CCCCCCCCCCCCc1c2[n+](cc3c(OCCCCCC)c(OC)ccc13)CCc1cc3c(cc1-2)OCO3 [compound AB31797] |  |
| 220 nM | 650 nM | 580 nM | CCCCCCCCCCCCCCc1c2[n+](cc3c(OC)c(OC)ccc13)CCc1cc3c(cc1-2)OCO3 [compound AB31800] |  |
| 3120 nM | 7340 nM | 12400 nM | COc1ccc2cc3[n+](cc2c1OC)CCc1cc2c(cc1-3)OCCO2 [compound AB31811] |  |
| 610 nM | 1380 nM | 2560 nM | CCCOc1c(OC)ccc2cc3[n+](cc12)CCc1cc2c(cc1-3)OCO2 [compound AB35511] |  |
| 340 nM | 960 nM | 2560 nM | COc1ccc2cc3[n+](cc2c1OCc1ccc(-c2ccccc2)cc1)CCc1cc2c(cc1-3)OCO2 [compound AB35532] |  |
| 680 nM | 1540 nM | 3150 nM | COc1ccc2cc3[n+](cc2c1OCCBr)CCc1cc2c(cc1-3)OCO2 [compound AB35595] |  |
| 1170 nM | 2580 nM | 4690 nM | CCOc1c(OC)ccc2cc3[n+](cc12)CCc1cc2c(cc1-3)OCO2 [compound AB36412] |  |
| 1840 nM | 3850 nM | 8320 nM | COc1ccc2cc3[n+](cc2c1OCCF)CCc1cc2c(cc1-3)OCO2 [compound AB36484] |  |
| 560 nM | 1340 nM | 2820 nM | [2H]C([2H])([2H])Oc1c(OC)ccc2cc3[n+](c(C4CCCC4)c12)CCc1cc2c(cc1-3)OCO2.[Br-] [compound AB36508] |  |

| SMILES | IC50 [12, 17] | IC50 [13] | IC50 [14] | other results |
| --- | --- | --- | --- | --- |
| COc1ccc2cc3[n+](cc2c1OCCCCl)CCc1cc2c(cc1-3)OCO2 [compound AB35483] |  | 2880 nM | 5320 nM | IC50 [12, 18]: 1260 nM |
| COc1ccc2cc3[n+](cc2c1OCCCl)CCc1cc2c(cc1-3)OCO2 [compound AB36404] |  | 2540 nM | 4860 nM | IC50 [12, 18]: 1060 nM |
| COc1c(OCCCCl)ccc2cc3[n+](cc12)CCc1cc2c(cc1-3)OCO2 [compound AB36425] |  | 1920 nM | 3880 nM | IC50 [12, 18]: 850 nM |

From patent publication US20250195502A1, “APPLICATION OF TETRACYCLIC COMPOUND IN TREATMENT OF TUMORS” (SHANGHAI SHIJIANG BIOTECHNOLOGY CO., LTD, priority 2022, published 2025)
